This is an account of results in patent EP4806891A1 (Kangbaida (Sichuan) Biotechnology Co., Ltd., priority 2023, dated 2025).

The assay has as its target T1, HEK-Blue-hTLR7 cells (Homo sapiens, UniProt Q9NYK1).
T1 construct: expressed in transfected cells; host or cells: HEK-Blue-hTLR7 cells (HEK293-derived reporter line)
T1 sequence (Q9NYK1 27-1049): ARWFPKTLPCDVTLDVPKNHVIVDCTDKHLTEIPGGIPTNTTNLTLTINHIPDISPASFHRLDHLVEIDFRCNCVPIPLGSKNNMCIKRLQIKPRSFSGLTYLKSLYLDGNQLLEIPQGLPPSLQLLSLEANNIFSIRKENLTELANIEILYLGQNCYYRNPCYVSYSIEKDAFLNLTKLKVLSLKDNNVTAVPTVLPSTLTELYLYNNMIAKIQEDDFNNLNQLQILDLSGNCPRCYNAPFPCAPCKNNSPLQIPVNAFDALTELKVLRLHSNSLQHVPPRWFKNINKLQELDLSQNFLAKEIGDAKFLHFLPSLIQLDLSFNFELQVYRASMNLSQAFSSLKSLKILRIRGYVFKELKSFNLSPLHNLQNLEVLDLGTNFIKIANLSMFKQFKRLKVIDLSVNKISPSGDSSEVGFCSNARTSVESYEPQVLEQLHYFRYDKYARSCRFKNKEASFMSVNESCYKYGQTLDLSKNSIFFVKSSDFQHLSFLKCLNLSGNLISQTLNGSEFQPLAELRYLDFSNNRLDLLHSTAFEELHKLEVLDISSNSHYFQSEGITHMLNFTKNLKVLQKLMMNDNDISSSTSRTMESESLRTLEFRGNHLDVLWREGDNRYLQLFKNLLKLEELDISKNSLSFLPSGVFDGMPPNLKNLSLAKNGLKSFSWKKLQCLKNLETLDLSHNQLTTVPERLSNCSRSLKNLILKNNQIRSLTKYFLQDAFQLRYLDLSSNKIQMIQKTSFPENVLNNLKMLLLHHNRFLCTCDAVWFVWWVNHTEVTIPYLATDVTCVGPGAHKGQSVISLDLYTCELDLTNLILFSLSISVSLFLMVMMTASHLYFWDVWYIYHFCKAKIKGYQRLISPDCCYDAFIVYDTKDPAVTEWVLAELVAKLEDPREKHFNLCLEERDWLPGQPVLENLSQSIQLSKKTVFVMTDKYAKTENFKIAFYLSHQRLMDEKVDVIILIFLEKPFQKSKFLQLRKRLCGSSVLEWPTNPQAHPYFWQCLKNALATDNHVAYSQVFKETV
Put plainly: HEK-Blue-hTLR7 cell inhibition assay. The assay is classed as cell-based. As to conditions: R848 0.8 µM, 16 h, OD 620 nm, read-out: TLR7 IC50. As to the method: HEK-Blue-hTLR7/8/9 cell inhibition assay
1. HEK-Blue-hTLR7/8 cells (1 × 10^4 cells/well) and HEK-Blue-hTLR9 cells (1.5 × 10^4 cells/well) were seeded in a 384-well cell culture plate, with a volume of 30 µL per well. The plate was incubated at 37°C in a 5% CO2 incubator for 4 h. 2. The compound was prepared with DMSO and diluted in DMEM medium to 10 concentrations (1:3 dilution), with final concentrations of 10000, 3333.3, 1111.1, 370.4, 123.5, 41.2, 13.7, 4.6, 1.5, and 0.5 nM; R848 was prepared with DMSO and diluted in DMEM medium, with final concentrations of 0.8 µM (HEK-Blue-hTLR7) and 3 µM (HEK-Blue-hTLR8); ODN2006 was prepared with endotoxin-free water and diluted in DMEM medium, with a final concentration of 1 µM. 3. Cells treated with DMSO were used as the blank control group, while cells treated solely with Resiquimod (R848) were used as the positive control group for HEK-Blue-hTLR7/8, and cells treated solely with ODN2006 were used as the positive control group for HEK-Blue-hTLR9. Cells treated with the test compound together with R848 or ODN2006 were used as the test group. Two parallel wells were set for each group and were placed at 37°C in a 5% CO2 incubator for incubation. 4. After being incubated for 4 h, the 384-well plate of HEK-Blue-hTLR7/8 was taken out from the incubator, and R848 alone or both R848 and the diluted compound were separately added into each well. The plate was placed at 37°C in a 5% CO2 incubator for incubation for 16 h; the 384-well plate of HEK-Blue-hTLR9 was taken out from the incubator, and ODN2006 alone or both ODN2006 and the diluted compound were added separately to each well. The plate was incubated at 37°C in a 5% CO2 incubator for 16 h. 5. After being incubated for 16 h, the 384-well plate was removed from the incubator and centrifuged at 1000 rpm for 1 minute. The optical density value of each well at 620 nm was measured using a multifunctional microplate reader. 6. The cell inhibition rate was calculated as (1-(OD620 test group-OD620 blank group)/(OD620 positive group-OD620 blank group))×100%, and the half maximal inhibitory concentration (IC50) was calculated through curve fitting. Table 1: Activity of the compounds of the present disclosure in HEK-Blue-hTLR7/8/9 cellular assays

Broadly, the IC50 is the midpoint of a concentration-inhibition curve.

As for `CN1CCN(c2nnc([C@]34CN(c5ccc(C#N)c6ncccc56)C[C@@]3(C(F)(F)F)C4)o2)CC1` [Compound 1, 5-((1S,5R)-1-(5-(4-methylpiperazin-1-yl)-1,3,4-oxadiazol-2-yl)-5-(trifluoromethyl)-3-azabicyclo[3.1.0]hexan-3-yl)quinoline-8-carbonitrile], the IC50 is below 0.1 µM.

As to `Cc1cc(N2CC3(c4nnc(C5CCN(C)CC5)o4)C[C@]3(C(F)(F)F)C2)c2cnn(C)c2n1` (stereo partly drawn) [Compound 2, 2-((5R)-3-(1,6-dimethyl-1H-pyrazolo[3,4-b]pyridin-4-yl)-5-(trifluoromethyl)-3-azabicyclo[3.1.0]hexan-1-yl)-5-(1-methylpiperidin-4-yl)-1,3,4-oxadiazole], the IC50 was above 1 µM.

For the compound `FC(F)(F)c1ccc(N2C[C@]3(c4nnc(C5(F)CCNCC5)o4)C[C@]3(C(F)(F)F)C2)c2cccnc12` [Compound 3, 2-(4-fluoropiperidin-4-yl)-5-((1S,5R)-5-(trifluoromethyl)-3-(8-(trifluoromethyl)quinolin-5-yl)-3-azabicyclo[3.1.0]hexan-1-yl)-1,3,4-oxadiazole], the IC50 is below 0.1 µM.

Turning to `CN1CC(c2nnc([C@]34CN(c5ccc(C(F)(F)F)c6ncccc56)C[C@@]3(C(F)(F)F)C4)o2)C1` [Compound 4, 2-(1-methylazetidin-3-yl)-5-((1S,5R)-5-(trifluoromethyl)-3-(8-(trifluoromethyl)quinolin-5-yl)-3-azabicyclo[3.1.0]hexan-1-yl)-1,3,4-oxadiazole], the half-inhibitory concentration (IC50) was below 0.1 µM.

Regarding `CN1CCC(c2nnc([C@]34CN(c5ccc(C#N)c6ncccc56)C[C@@]3(C(F)(F)F)C4)n2C)CC1` [Compound 5, 5-((1S,5R)-1-(4-methyl-5-(1-methylpiperidin-4-yl)-4H-1,2,4-triazol-3-yl)-5-(trifluoromethyl)-3-azabicyclo[3.1.0]hexan-3-yl)quinoline-8-carbonitrile], the IC50 is below 1 µM.

On to `CN1CCC(Nc2nnc([C@]34CN(c5ccc(C#N)c6ncccc56)C[C@@]3(C(F)(F)F)C4)o2)CC1` [Compound 6, 5-((1S,5R)-1-(5-((1-methylpiperidin-4-yl)amino)-1,3,4-oxadiazol-2-yl)-5-(trifluoromethyl)-3-azabicyclo[3.1.0]hexan-3-yl)quinoline-8-carbonitrile], for which the IC50 was below 0.1 µM.

As for `N#Cc1ccc(N2C[C@]3(c4nnc(N)o4)C[C@]3(C(F)(F)F)C2)c2cccnc12` [Compound 7, 5-((1S,5R)-1-(5-amino-1,3,4-oxadiazol-2-yl)-5-(trifluoromethyl)-3-azabicyclo[3.1.0]hexan-3-yl)quinoline-8-carbonitrile], the 50% inhibitory concentration (IC50) was below 0.1 µM.

For `CN1CCC(C)(c2nnc([C@]34CN(c5ccc(C#N)c6ncccc56)C[C@@]3(C(F)(F)F)C4)o2)CC1` [Compound 8, 5-((1S,5R)-1-(5-(1,4-dimethylpiperidin-4-yl)-1,3,4-oxadiazol-2-yl)-5-(trifluoromethyl)-3-azabicyclo[3.1.0]hexan-3-yl)quinoline-8-carbonitrile], the IC50 was below 0.1 µM.

As to `CN1CCC(c2nnc([C@]34CN(c5ccc(C#N)c6ncccc56)C[C@@]3(C(F)(F)F)C4)[nH]2)CC1` [Compound 9, 5-((1S,5R)-1-(5-(1-methylpiperidin-4-yl)-4H-1,2,4-triazol-3-yl)-5-(trifluoromethyl)-3-azabicyclo[3.1.0]hexan-3-yl)quinoline-8-carbonitrile], the concentration for half-maximal inhibition (IC50) was below 0.1 µM.

For the compound `CN1[C@@H]2CC[C@H]1C[C@H](c1nnc([C@]34CN(c5ccc(C#N)c6ncccc56)C[C@@]3(C(F)(F)F)C4)o1)C2` [Compound 11, 5-((1S,5R)-1-(5-((1R,3S,5S)-8-methyl-8-azabicyclo[3.2.1]octan-3-yl)-1,3,4-oxadiazol-2-yl)-5-(trifluoromethyl)-3-azabicyclo[3.1.0]hexan-3-yl)quinoline-8-carbonitrile], the IC50 is below 0.1 µM.

As to `N#Cc1ccc(N2C[C@]3(c4nnc(C5CCOCC5)o4)C[C@]3(C(F)(F)F)C2)c2cccnc12` [Compound 12, 5-((1S,5R)-1-(5-(tetrahydro-2H-pyran-4-yl)-1,3,4-oxadiazol-2-yl)-5-(trifluoromethyl)-3-azabicyclo[3.1.0]hexan-3-yl)quinoline-8-carbonitrile], the IC50 is below 0.1 µM.

Take `CN1CC2(CCC(c3nnc([C@]45CN(c6ccc(C#N)c7ncccc67)C[C@@]4(C(F)(F)F)C5)o3)CC2)C1` [Compound 13, 5-((1S,5R)-1-(5-(2-methyl-2-azaspiro[3.5]nonan-7-yl)-1,3,4-oxadiazol-2-yl)-5-(trifluoromethyl)-3-azabicyclo[3.1.0]hexan-3-yl)quinoline-8-carbonitrile]: the IC50 is below 0.1 µM.

In the case of `CN1CC2CC1CC2c1nnc([C@]23CN(c4ccc(C#N)c5ncccc45)C[C@@]2(C(F)(F)F)C3)o1` (stereo partly drawn) [Compound 14, 5-((1S,5R)-1-(5-(2-methyl-2-azabicyclo[2.2.1]heptan-5-yl)-1,3,4-oxadiazol-2-yl)-5-(trifluoromethyl)-3-azabicyclo[3.1.0]hexan-3-yl)quinoline-8-carbonitrile], the IC50 is below 0.1 µM.

For the compound `CN1CCC(Oc2nnc([C@]34CN(c5ccc(C#N)c6ncccc56)C[C@@]3(C(F)(F)F)C4)o2)CC1` [Compound 15, 5-((1S,5R)-1-(5-((1-methylpiperidin-4-yl)oxy)-1,3,4-oxadiazol-2-yl)-5-(trifluoromethyl)-3-azabicyclo[3.1.0]hexan-3-yl)quinoline-8-carbonitrile], the IC50 is below 0.1 µM.

For `N#Cc1ccc(N2C[C@]3(c4nnc(C5CCN(CC(N)=O)CC5)o4)C[C@]3(C(F)(F)F)C2)c2cccnc12` [Compound 17, 2-(4-(5-((1S,5R)-3-(8-cyanoquinolin-5-yl)-5-(trifluoromethyl)-3-azabicyclo[3.1.0]hexan-1-yl)-1,3,4-oxadiazol-2-yl)piperidin-1-yl)acetamide], the IC50 was below 0.1 µM.

For `N#Cc1ccc(N2C[C@]3(c4nnc(C5CC6(CNC6)C5)o4)C[C@]3(C(F)(F)F)C2)c2cccnc12` [Compound 18, 5-((1S,5R)-1-(5-(2-azaspiro[3.3]heptan-6-yl)-1,3,4-oxadiazol-2-yl)-5-(trifluoromethyl)-3-azabicyclo[3.1.0]hexan-3-yl)quinoline-8-carbonitrile], the IC50 is below 0.1 µM.

Consider `CN1CC2(CC(c3nnc([C@]45CN(c6ccc(C#N)c7ncccc67)C[C@@]4(C(F)(F)F)C5)o3)C2)C1` [Compound 19, 5-((1S,5R)-1-(5-(2-methyl-2-azaspiro[3.3]heptan-6-yl)-1,3,4-oxadiazol-2-yl)-5-(trifluoromethyl)-3-azabicyclo[3.1.0]hexan-3-yl)quinoline-8-carbonitrile], for which the IC50 is below 0.1 µM.

Take `N#Cc1ccc(N2C[C@]3(c4nnc([C@H]5CC[C@H](N)CC5)o4)C[C@]3(C(F)(F)F)C2)c2cccnc12` [Compound 20, 5-((1S,5R)-1-(5-((1R,4S)-4-aminocyclohexyl)-1,3,4-oxadiazol-2-yl)-5-(trifluoromethyl)-3-azabicyclo[3.1.0]hexan-3-yl)quinoline-8-carbonitrile]: the IC50 is below 0.1 µM.
